This note sets out measurements from article PMC9974463 (Proceedings of the National Academy of Sciences of the …, 2023).

Assay [1] concerns the target Acinetobacter baylyi cyanophycin dipeptide hydrolase CphZ (Acinetobacter baylyi DSM587). The experiment in a line: SEC. In general terms: SEC sorts molecules by how far they enter the pores of the column.
Assay [2] concerns the target AbCphZ E251A (Acinetobacter baylyi DSM587). The experiment in a line: ITC. On the technique in general: Isothermal titration calorimetry measures the heat released or taken up as one component is titrated into another.
In another assay the target is T1, AbCphZ (Acinetobacter baylyi, UniProt Q6FCQ4, E251A).
T1 sequence (Q6FCQ4 1-383 E251A): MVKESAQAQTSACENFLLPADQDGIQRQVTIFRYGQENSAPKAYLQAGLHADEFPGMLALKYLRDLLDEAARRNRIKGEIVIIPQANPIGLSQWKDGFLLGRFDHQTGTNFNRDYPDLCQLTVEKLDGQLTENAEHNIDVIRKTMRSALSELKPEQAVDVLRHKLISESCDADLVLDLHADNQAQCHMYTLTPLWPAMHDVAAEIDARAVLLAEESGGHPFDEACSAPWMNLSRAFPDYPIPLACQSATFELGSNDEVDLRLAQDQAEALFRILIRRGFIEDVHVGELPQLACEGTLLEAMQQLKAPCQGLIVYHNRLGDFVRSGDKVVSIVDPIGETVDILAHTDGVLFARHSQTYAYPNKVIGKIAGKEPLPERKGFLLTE
As to the kind of experiment: isothermal titration calorimetry. The format is binding.

For the next assay, the target named is T2, PaAotO (Pseudomonas aeruginosa, UniProt O50184).
T2 sequence (O50184 1-370): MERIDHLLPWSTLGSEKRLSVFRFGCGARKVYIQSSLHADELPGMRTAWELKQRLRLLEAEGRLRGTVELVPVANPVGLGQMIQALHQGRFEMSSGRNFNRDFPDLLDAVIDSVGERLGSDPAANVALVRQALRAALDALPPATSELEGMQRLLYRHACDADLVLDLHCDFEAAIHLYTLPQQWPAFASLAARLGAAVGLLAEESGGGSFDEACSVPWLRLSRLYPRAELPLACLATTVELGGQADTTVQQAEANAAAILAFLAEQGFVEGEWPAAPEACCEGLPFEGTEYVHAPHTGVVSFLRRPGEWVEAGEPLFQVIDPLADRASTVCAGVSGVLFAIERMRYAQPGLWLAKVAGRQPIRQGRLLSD
As to the kind of experiment: Arg release coupled assay. The format is biochemical. The following applies: 1 mM substrate, 500 nM enzyme.

On to “Acinetobacter baylyi cyanophycin dipeptide hydrolase CphZ (enzyme)”, for which, in assay [1], the stoichiometry N (commonly the number of molecules, sites or subunits per partner or assembly) worked out at 2.
In the case of β-Asp-Arg dipeptide, the dissociation constant (Kd) (in general, a measure of binding affinity in units of concentration) in assay [2] worked out at 7.6 µM.
On AbCphZ, `N=C(N)NCCC[C@H](N)C(=O)O` [Arg] yielded a Kd of 471 ± 16.8 µM.
Consider `N=C(N)NCCC[C@H](NC(=O)C[C@H](N)C(=O)O)C(=O)O` [β-Asp-Arg], for which, on AbCphZ, the affinity, expressed as Kd, was 7.6 ± 0.1 µM. Besides, on PaAotO, the “Arg release coupled assay (340 nm)” value is “AotO is specific for β-Asp-Arg and hydrolyzes it at a rate comparable to AbCphZ”.
